In patent publication US6673791B2, “Non-nucleoside reverse transcriptase inhibitors” (Boehringer Ingelheim (Canada) Ltd., priority 2001, dated 2004):

Tested on: K103N/Y181C (HIV-1 double mutant strain)
Experiment: EC50 assay, K103N/Y181C strain
Type: cell-based
Conditions: Human immunodeficiency virus 1, read-out: EC50 K103N/Y181C (nM), K103N/Y181C double mutant
From the text: (§1) Reverse TranscriptASE (RT) Assays
(§2) The assays are as described in WO 01/96338A1, the contents of which are hereby incorporated herein. The results are listed in Tables 8 as IC50(nM) and EC50(nM).

SMILES	EC50 [nM]
CCN1c2ncc(CCOc3ccc(C(=O)O)c4ccccc34)cc2C(=O)N(C)c2ccc(Cl)nc21 [Entry 1002]	< 100
CCN1c2ncc(CCOc3ccc(C(=O)O)c4c3CCN(C(=O)OC(C)(C)C)C4)cc2C(=O)N(C)c2cccnc21 [Entry 7003]	< 100
CCN1c2ncc(CCOc3ccc(C(=O)O)c4c3CCC4)cc2C(=O)N(C)c2cccnc21 [Entry 4001]	< 100
CCN1c2ncc(CCOc3ccc(C(=O)O)c4ccccc34)cc2C(=O)Nc2c(C)cc(Cl)nc21 [Entry 1007]	< 100

Same assay, conditions: K103N/Y181C double mutant; read-out: EC50 K103N/Y181C

SMILES	EC50 [nM]
CCN1c2ncc(CCOc3ccc(CCC(=O)NN)c4ccccc34)cc2C(=O)N(C)c2cccnc21 [Entry 2020]	100 to 1000

Same assay, conditions: read-out: EC50 K103N/Y181C; K103N/Y181C double mutant

SMILES	EC50 [nM]
CCN1c2ncc(CCOc3ccc(/C=C/C(=O)O)c4ccccc34)cc2C(=O)N(C)c2ccc(Cl)nc21 [Entry 2016]	100 to 1000
CCN1c2ncc(CCOc3ccc(/C=C/C(=O)O)c4ccccc34)cc2C(=O)Nc2c(C)cc(Cl)nc21 [Entry 2018]	100 to 1000

Target: T1, Y188L mutant RT (HIV-1 RT) (Human immunodeficiency virus type 1 group M subtype B, UniProt P03366, Y787L)
T1 construct: mutations that occur in the reverse transcriptase segment of the pol gene
Experiment: biochemical
Conditions: IC50 Y188L (nM)
From the text: (§3) Based upon testing of these compounds, as described below, it is known that they inhibit the RNA-dependent DNA polymerase activity of HIV-1 RT. […] Utilising the Reverse Transcriptase (RT) Assay described below, compounds can be tested for their ability to inhibit the RNA-dependent DNA polymerase activity of HIV-1 RT. Certain specific compounds described in the Examples which appear below, were so tested. The results of this testing appear in Table 4 as IC50 (nM) and Table 5 as EC50 (nM).
as §1, §2

SMILES	IC50 [nM]
CCN1c2ncc(CCOc3ccc(C(=O)O)c4ccccc34)cc2C(=O)N(C)c2ccc(Cl)nc21 [Entry 1002]	100 to 1000
CCN1c2ncc(CCOc3ccc(C(=O)O)c4c3CCN(C(=O)OC(C)(C)C)C4)cc2C(=O)N(C)c2cccnc21 [Entry 7003]	100 to 1000
CCN1c2ncc(CCOc3ccc(C(=O)O)c4c3CCC4)cc2C(=O)N(C)c2cccnc21 [Entry 4001]	> 1000
CCN1c2ncc(CCOc3ccc(C(=O)O)c4ccccc34)cc2C(=O)Nc2c(C)cc(Cl)nc21 [Entry 1007]	> 1000

Same assay, conditions: read-out: IC50 Y188L

SMILES	IC50 [nM]
CCN1c2ncc(CCOc3ccc(/C=C/C(=O)O)c4ccccc34)cc2C(=O)N(C)c2ccc(Cl)nc21 [Entry 2016]	100 to 1000
CCN1c2ncc(CCOc3ccc(CCC(=O)NN)c4ccccc34)cc2C(=O)N(C)c2cccnc21 [Entry 2020]	> 1000
CCN1c2ncc(CCOc3ccc(/C=C/C(=O)O)c4ccccc34)cc2C(=O)Nc2c(C)cc(Cl)nc21 [Entry 2018]	> 1000

Target: T2, K103N/Y181C double mutant RT (HIV-1 RT) (Human immunodeficiency virus type 1 group M subtype B, UniProt P03366, K702N/Y780C)
T2 construct: mutations that occur in the reverse transcriptase segment of the pol gene
Experiment: biochemical
Conditions: not given
From the text: as §3, §1, §2

SMILES	IC50 [nM]
CCN1c2ncc(CCOc3ccc(C(=O)O)c4ccccc34)cc2C(=O)N(C)c2ccc(Cl)nc21 [Entry 1002]	< 100
CCN1c2ncc(CCOc3ccc(C(=O)O)c4c3CCN(C(=O)OC(C)(C)C)C4)cc2C(=O)N(C)c2cccnc21 [Entry 7003]	100 to 1000
CCN1c2ncc(CCOc3ccc(C(=O)O)c4c3CCC4)cc2C(=O)N(C)c2cccnc21 [Entry 4001]	100 to 1000
CCN1c2ncc(CCOc3ccc(C(=O)O)c4ccccc34)cc2C(=O)Nc2c(C)cc(Cl)nc21 [Entry 1007]	100 to 1000

Same assay, conditions: K103N/Y181C double mutant RT; read-out: IC50 K103N/Y181C

SMILES	IC50 [nM]
CCN1c2ncc(CCOc3ccc(CCC(=O)NN)c4ccccc34)cc2C(=O)N(C)c2cccnc21 [Entry 2020]	100 to 1000

Same assay, conditions: read-out: IC50 K103N/Y181C; K103N/Y181C double mutant RT

SMILES	IC50 [nM]
CCN1c2ncc(CCOc3ccc(/C=C/C(=O)O)c4ccccc34)cc2C(=O)N(C)c2ccc(Cl)nc21 [Entry 2016]	100 to 1000
CCN1c2ncc(CCOc3ccc(/C=C/C(=O)O)c4ccccc34)cc2C(=O)Nc2c(C)cc(Cl)nc21 [Entry 2018]	100 to 1000

Target: T3, V106A mutant RT (HIV-1 RT) (Human immunodeficiency virus type 1 group M subtype B, UniProt P03366, V705A)
T3 construct: mutations that occur in the reverse transcriptase segment of the pol gene
Experiment: biochemical
Conditions: IC50 V106A (nM)
From the text: as §3, §1, §2

SMILES	IC50 [nM]
CCN1c2ncc(CCOc3ccc(C(=O)O)c4ccccc34)cc2C(=O)N(C)c2ccc(Cl)nc21 [Entry 1002]	100 to 1000
CCN1c2ncc(CCOc3ccc(C(=O)O)c4c3CCN(C(=O)OC(C)(C)C)C4)cc2C(=O)N(C)c2cccnc21 [Entry 7003]	> 1000
CCN1c2ncc(CCOc3ccc(/C=C/C(=O)O)c4ccccc34)cc2C(=O)Nc2c(C)cc(Cl)nc21 [Entry 2018]	100 to 1000
CCN1c2ncc(CCOc3ccc(C(=O)O)c4c3CCC4)cc2C(=O)N(C)c2cccnc21 [Entry 4001]	100 to 1000
CCN1c2ncc(CCOc3ccc(C(=O)O)c4ccccc34)cc2C(=O)Nc2c(C)cc(Cl)nc21 [Entry 1007]	100 to 1000

Same assay, conditions: read-out: IC50 V106A

SMILES	IC50 [nM]
CCN1c2ncc(CCOc3ccc(/C=C/C(=O)O)c4ccccc34)cc2C(=O)N(C)c2ccc(Cl)nc21 [Entry 2016]	100 to 1000
CCN1c2ncc(CCOc3ccc(CCC(=O)NN)c4ccccc34)cc2C(=O)N(C)c2cccnc21 [Entry 2020]	> 1000

Target: T4, WT RT (HIV-1 RT) (Human immunodeficiency virus type 1 group M subtype B, UniProt P03366)
T4 construct: mutations that occur in the reverse transcriptase segment of the pol gene
Experiment: biochemical
Conditions: not given
From the text: as §3, §1, §2

SMILES	IC50 [nM]
CCN1c2ncc(CCOc3ccc(C(=O)O)c4ccccc34)cc2C(=O)N(C)c2ccc(Cl)nc21 [Entry 1002]	< 100
CCN1c2ncc(CCOc3ccc(C(=O)O)c4c3CCN(C(=O)OC(C)(C)C)C4)cc2C(=O)N(C)c2cccnc21 [Entry 7003]	< 100
CCN1c2ncc(CCOc3ccc(C(=O)O)c4c3CCC4)cc2C(=O)N(C)c2cccnc21 [Entry 4001]	< 100
CCN1c2ncc(CCOc3ccc(C(=O)O)c4ccccc34)cc2C(=O)Nc2c(C)cc(Cl)nc21 [Entry 1007]	< 100

Same assay, conditions: read-out: IC50 WT RT; wild type RT

SMILES	IC50 [nM]
CCN1c2ncc(CCOc3ccc(/C=C/C(=O)O)c4ccccc34)cc2C(=O)N(C)c2ccc(Cl)nc21 [Entry 2016]	< 100
CCN1c2ncc(CCOc3ccc(/C=C/C(=O)O)c4ccccc34)cc2C(=O)Nc2c(C)cc(Cl)nc21 [Entry 2018]	< 100

Same assay, conditions: wild type RT; read-out: IC50 WT RT

SMILES	IC50 [nM]
CCN1c2ncc(CCOc3ccc(CCC(=O)NN)c4ccccc34)cc2C(=O)N(C)c2cccnc21 [Entry 2020]	< 100

Tested on: WT RT (HIV-1 wild type strain)
Experiment: EC50 assay, WT RT strain
Type: cell-based
Conditions: Human immunodeficiency virus 1, read-out: EC50 WT RT (nM)
From the text: as §1, §2

SMILES	EC50 [nM]
CCN1c2ncc(CCOc3ccc(C(=O)O)c4ccccc34)cc2C(=O)N(C)c2ccc(Cl)nc21 [Entry 1002]	< 100
CCN1c2ncc(CCOc3ccc(C(=O)O)c4c3CCN(C(=O)OC(C)(C)C)C4)cc2C(=O)N(C)c2cccnc21 [Entry 7003]	< 100
CCN1c2ncc(CCOc3ccc(C(=O)O)c4c3CCC4)cc2C(=O)N(C)c2cccnc21 [Entry 4001]	< 100
CCN1c2ncc(CCOc3ccc(C(=O)O)c4ccccc34)cc2C(=O)Nc2c(C)cc(Cl)nc21 [Entry 1007]	< 100

Same assay, conditions: read-out: EC50 WT RT; wild type

SMILES	EC50 [nM]
CCN1c2ncc(CCOc3ccc(/C=C/C(=O)O)c4ccccc34)cc2C(=O)N(C)c2ccc(Cl)nc21 [Entry 2016]	< 100
CCN1c2ncc(CCOc3ccc(/C=C/C(=O)O)c4ccccc34)cc2C(=O)Nc2c(C)cc(Cl)nc21 [Entry 2018]	< 100

Same assay, conditions: wild type; read-out: EC50 WT RT

SMILES	EC50 [nM]
CCN1c2ncc(CCOc3ccc(CCC(=O)NN)c4ccccc34)cc2C(=O)N(C)c2cccnc21 [Entry 2020]	< 100
